Experimental findings from ChEMBL document CHEMBL1144099, “Three new antibacterial alkaloids from a marine sponge Stelletta species” (1999) are described below.

This assay deals with Escherichia coli. In words: Antibacterial activity against Escherichia coli at 20 ug/6 mm disk. It counts as functional.
`CC(C)=CCC/C(C)=C/CC/C(C)=C/CC/C(C)=C/C(=O)NCCc1cn(CCCN)c[n+]1C.[Cl-]` [STELLETTAZOLE C]: the “inhibition zone (IZ)” value is listed as 6.2 mm. As to `CC(C)=CCC/C(C)=C/CC/C(C)=C/CC(=O)NC[C@@H]1CC[N+]2(C)CCCC[C@H]12.[Cl-]` (stereo partly drawn) [STELLETTAMIDE C], the “inhibition zone (IZ)” value came to 10.5 mm. In the case of `CC(C)=CCC/C(C)=C/CC/C(C)=C/CC/C(C)=C/C(=O)NCCc1cn(CCCNC(=N)N)c[n+]1C.[Cl-]` [STELLETTAZOLE B], the “inhibition zone (IZ)” value is 6.1 mm.
